Values quoted from earlier work as cited in patent publication US5434330A, “Process and apparatus for separation of constituents of gases using gas hydrates” (priority 1993, dated 1995).
Like-named read-outs stand apart in the source and are kept apart here.

Legend:
[1] = in ethyl ether, 20° C.
[2] = for calculation at 253K
[3] = 25° C.

nitrogen-methanol Henry's law constant ([2]; in methanol) | nitrogen-water Henry's law constant ([2]; in water) | SMILES | Ostwald coefficient [1] | methane-methanol Henry's law constant ([2]; in methanol) [atm] | methane-water Henry's law constant ([2]; in water) | SOLUBILITY OF METHANE, HENRY'S CONSTANT H ([3]; in Acetone) [atm] | SOLUBILITY OF METHANE, HENRY'S CONSTANT H ([3]; in Ethanol) [atm] | SOLUBILITY OF METHANE, HENRY'S CONSTANT H ([3]; in Methanol) [atm] | SOLUBILITY OF METHANE, HENRY'S CONSTANT H ([3]; in Water)
– | – | C [methane] | 1028 | 824 | 10,193 atm | 533 | 770 | 1137 | 39,052 atm
3,632 atm | 27,987 atm | N#N [nitrogen] | – | – | – | – | – | – | –
